Like-named read-outs stand apart in the source and are kept apart here.

The source of these data is article PMC6631119, “Nasal Administration and Plasma Pharmacokinetics of Parathyroid Hormone Peptide PTH 1-34 for the Treatment of Osteoporosis” (Pharmaceutics, 2019).

Series [1] can be described thus: Healthy human volunteer plasma pharmacokinetics of PTH 1-34 (open cross-over, ELISA). It is filed as in vivo. As to the method:
An open cross-over clinical IMP (investigative medicinal product) study was conducted in seven healthy female subjects aged over 55 years (mean age 67.7, range 58 to 81 years). Each participant provided informed consent in accordance with ethical committee requirements and good clinical practice. Pre-study screening assessments were carried out within 21 days of the participants receiving their first dose (Supplementary Materials: Section S1). Inclusion and exclusion criteria were applied (Supplementary Materials: Section S2). Participants were admitted to the study centre on the morning of dosing, having abstained from alcohol and smoking for at least 24 h previously and fasted from midnight. Participants were given a light meal on arrival. A cannula was then positioned in the participant’s arm or hand to facilitate the collection of blood samples. The pre-dose sample was taken. Participants received a single subcutaneous injection of 20 μg teriparatide into the abdomen at their first trial visit. Following a seven day wash out period, each participant self-administered 90 μg PTH 1-34 from the nasal spray formulation using the Rexam SP270 nasal spray device; the patients had previously been trained in operation of the Rexam device. Any episodes of sneezing after administration of the nasal formulation were recorded. The nasal spray formulation contained Tc-99m-DTPA, 3–5 MBq per Rexam SP270 nasal spray dose, resulting in an effective radiation dose of less than 0.14 mSv to each participant.
Following either subcutaneous or intranasal dosing, 10 mL blood samples (Becton Dickinson sodium heparin) were taken at 5, 15, 30, 60 120, 180, 240, 300 and 360 min. After each sample was taken, the cannula was flushed with 10 mL 0.9% saline. Blood was stored on ice and centrifuged within 30 min to prepare plasma (4 °C, 1100–1300 g, 10 min). These samples were stored at −20 °C before dispatching to Simbec Research Ltd. (Merthyr Tydfil, UK) for quantification by validated ELISA, in compliance with The UK Good Laboratory Practice Regulations 1999 (Statutory Instrument No. 310 6) and subsequent amendment, OECD Principles of Good Laboratory Practice (Paris 1998) and EC Commission Directive 2004/10/EC of February 2004.
Pharmacokinetic data were analysed using Phoenix® WinNonlin® 5.1 (Certara USA, Inc., Princeton, NJ, USA) from quantified PTH 1-34 in the plasma, using recorded sampling times. Summary statistics (mean, median, SD, coefficient of variation [CV%], minimum, maximum, n) and the following plasma pharmacokinetic parameters were calculated: • Cmax • Tmax • Terminal half-life (t1/2) • AUC to 2 h (AUC0–2h) • AUC to last measured time point (AUClast) and corresponding Frel for nasal formulation

Series [2] is described as follows: HPLC integrity of spray dried PTH 1-34. It is filed as physicochemical. The following applies: spray dried dry powder formulations during formulation development, inlet 85 °C. The protocol:
The dry powder formulation was also prepared at CPL as 1% w/w PTH (1-34) with 39% Gellan gum, 40% Solutol® HS15, 20% Trehalose. In brief, 97.5 mg Gellan gum was dissolved in 50 mL ultra-pure water overnight. Solutol® HS15 was rendered molten (60 ± 10 °C), and 100 mg was added to the Gellan gum solution and mixed for 30–45 min at 60 °C. 50 mg of trehalose was added and mixed for a further 10 min. A total 5 mg of PTH 1-34 was dissolved in 5 mL of ultra-pure water, and 2.5 mL was added to the formulation. Particles were prepared using a spray dryer Mini Spray Dryer B-290 (Buchi UK Ltd., Oldham, UK) with the inlet set at 85 °C (outlet modified by inlet temperature), the aspirator 100%, the pump set at 006 equivalent to 2 mL/ min, the spray pressure at 4 bar. Particle size of the dry powder formulation manufactured for use in the sheep was not measured, due to limited availability of material due to batch size. However, the particle size of similar formulations when prepared for loading into the delivery devices was monitored using Helos/BF (Sympatec GmbH, Clausthal-Zellerfeld, Germany) during formulation development, where the VMD was 73.7–91.8 µm (×10 = 10.6–23.7 µm, ×50 = 51.5–98.1 µm, ×90 = 142–153 µm). A total 2.4–2.8% of particles were below 10 µm. As the vast majority of particles were >10 µm, the formulations would be expected to be nasally deposited.

For series [3] the following is noted: cited from earlier work. The text has this:
Nasal delivery of large peptides such as parathyroid 1-34 (PTH 1-34) can benefit from a permeation enhancer to promote absorption across the nasal mucosa into the bloodstream. […] We report here the plasma pharmacokinetics of PTH 1-34 in healthy human volunteers receiving the liquid nasal spray formulation containing Solutol® HS15 ... || Our previously published preclinical data in rats for a liquid nasal spray formation were encouraging, showing that the nasal systemic absorption of PTH 1-34 was increased considerably when administered in a formulation containing Solutol® HS15. […] This was not consistent with the previous data from our small animal preclinical studies. In the preceding preclinical conscious rat model, we reported the pharmacokinetic performance of an […] PTH 1-34 subcutaneous formulation, an intranasal liquid formulation with no enhancer and an intranasal solution containing Solutol® HS15. PTH 1-34 doses of 80 μg/kg by subcutaneous injection and 100 μg/kg intranasally were given to rats. T ...

[4] abbreviates: healthy female volunteers aged over 55 y, single 20 μg teriparatide subcutaneous injection into abdomen (Forsteo pen), plasma ELISA, mean of n = 7.
Setting [5] is: conscious rat, intranasal liquid formulation without enhancer, 100 μg/kg.

As to `CC[C@H](C)[C@H](NC(=O)[C@H](CCC(=O)O)NC(=O)[C@H](CO)NC(=O)[C@@H](NC(=O)[C@@H](N)CO)C(C)C)C(=O)N[C@@H](CCC(N)=O)C(=O)N[C@@H](CC(C)C)C(=O)N[C@@H](CCSC)C(=O)N[C@@H](Cc1cnc[nH]1)C(=O)N[C@@H](CC(N)=O)C(=O)N[C@@H](CC(C)C)C(=O)NCC(=O)N[C@@H](CCCCN)C(=O)N[C@@H](Cc1cnc[nH]1)C(=O)N[C@@H](CC(C)C)C(=O)N[C@@H](CC(N)=O)C(=O)N[C@@H](CO)C(=O)N[C@@H](CCSC)C(=O)N[C@@H](CCC(=O)O)C(=O)N[C@@H](CCCN=C(N)N)C(=O)N[C@H](C(=O)N[C@@H](CCC(=O)O)C(=O)N[C@@H](Cc1c[nH]c2ccccc12)C(=O)N[C@@H](CC(C)C)C(=O)N[C@@H](CCCN=C(N)N)C(=O)N[C@@H](CCCCN)C(=O)N[C@@H](CCCCN)C(=O)N[C@@H](CC(C)C)C(=O)N[C@@H](CCC(N)=O)C(=O)N[C@@H](CC(=O)O)C(=O)N[C@H](C(=O)N[C@@H](Cc1cnc[nH]1)C(=O)N[C@@H](CC(N)=O)C(=O)N[C@@H](Cc1ccccc1)C(=O)O)C(C)C)C(C)C` [PTH 1-34, PTH 1-34 acetate], in series [1] (female, plasma, inhaled or intranasal, 90 ug, human, 90 μg intranasal vs 20 μg subcutaneous, all seven subjects included in the calculation, read-out: bioavailability after intranasal dosing compared to subcutaneous injection of Forsteo), the F rel was 0.26%. In addition, the Cmax in series [1] (setting [4]) was 0.253 ng/mL; in series [1] (human, inhaled or intranasal, 90 ug, healthy female volunteers aged over 55 y, single 90 μg PTH 1-34 intranasal liquid spray with 7.5% w/v Solutol HS15 (Rexam SP270), plasma ELISA, mean of n = 7, not detectable in 5 of 7, read-out: Cmax), 0.005 ng/mL; in series [3] (setting [5]), 2 ng/mL; in series [3] (rat, subcutaneous injection, 80 μg/kg PTH 1-34, mean) it was 14.8 ng/mL. In addition, the t½ in series [1] (setting [4]) is reported as 65 min. The “bioavailability after intranasal dosing compared to subcutaneous injection of Forsteo” value in series [1] (human, 90 μg intranasal vs 20 μg subcutaneous, only the subjects with measurable plasma concentrations) is “approximately 1%”. In addition, the Tmax was 9 min in series [1] (human, inhaled or intranasal, 90 ug, healthy female volunteers aged over 55 y, single 90 μg PTH 1-34 intranasal liquid spray with 7.5% w/v Solutol HS15 (Rexam SP270), plasma ELISA, mean of n = 7, not detectable in 5 of 7); 13 min in series [3] (setting [5]); approximately 10 min in series [3] (conscious rat, intranasal solution containing Solutol HS15, 100 μg/kg). Also, the “integrity of the spray dried PTH 1-34: purity by HPLC” value in series [2] was more than 82.5%. Also, the relative bioavailability in series [3] (conscious rat, intranasal liquid formulation without enhancer (100 μg/kg) relative to subcutaneous injection (80 μg/kg)) was 8%; in series [3] (rat, intranasal liquid formulation containing Solutol HS15 (100 μg/kg) relative to subcutaneous injection (80 μg/kg)), 78%.

As a reminder, the Cmax is the highest concentration seen after dosing. A word on the t½: it is the time in which the quantity being followed falls by half. A high value points to slow decline. A word on the Tmax: it is the time at which the peak concentration occurs.
